US20180020669A1, “Methods for the Inhibition and Dispersal of Biofilms” (priority 2015, published 2018)

Columns and labels:
S. aureus NCTC 8325 = assay type: cell-based, Staphylococcus aureus
Method: The effect of auranofin on the growth of S. aureus was also assessed using a time kill assay. Exponentially growing S. aureus NCTC 8325 were diluted to approximately 5×10^6 cfu/mL in tryptic soy broth (TSB) and auranofin, rifampicin or both auranofin and rifampicin were added. Auranofin was added to cultures at a concentration of 5 μg/mL; 1 μg/mL or 0.5 μg/mL. Rifampicin was added to cultures at a concentration of 1 μg/mL or 0.2 pig/mL, while cultures with auranofin and rifampicin had 0.5 μg/mL auranofin and 0.2 μg/mL rifampicin. Cultures were sampled at various time points and colony forming units determined.

S. aureus = test: Resistance frequency assay; assay type: cell-based, Staphylococcus aureus; conditions: CaMHB broth with serial dilutions of the compound
Method: Briefly, S. aureus was streaked out on TSB agar plates containing 1×, 1.5×, 2× and 4× the minimum inhibitory concentration of auranofin (1 μg/mL). Any potential mutants were picked and assessed for resistance. The potentially resistant bacteria were cultured overnight in CaMHB broth containing serial dilutions of auranofin, rifampicin or lincomycin and assessed for their resistance profile by measuring the growth of the bacteria in a growth assay and comparing it to the control. “Wild-type” bacteria that had not originally been grown in the agar plates and which were not resistant were also included in the growth assay. “Rif resistant cells” were picked from the rifampicin zone of inhibition and potential “Au resistant” mutants were picked from the edge of the auranofin zone of inhibition and tested.

[1] = system: E. coli K12 single-knockout mutants; test: Growth assay of Keio library redox mutants; assay type: cell-based
Method: To determine whether auranofin acts on the antioxidant pathway mutants from the Keio library, containing single-knockout mutants for all non-essential genes of E. coli K12 were tested in a growth assay.
Auranofin stock solution (20 mg/ml) in dimethyl sulfoxide (DMSO) was serially diluted in DMSO and each dilution added in duplicate to a 96-well plate to a final DMSO concentration of 2% (v/v). An overnight culture of E. coli mutants and wild type were diluted 1:100 in Luria Bertani (LB) broth and 150 μl of this sample was added to each well of the 96-well plates. Control wells included an ‘untreated’ control with bacteria in the presence of 2% DMSO and a negative sample (containing […] growth media in the presence of 2% DMSO). Plates were incubated at […] for 22-24 h and bacterial growth assessed by absorbance at a wavelength of 595 nm. The minimum inhibitory concentration (MIC) was defined as the lowest concentration of compound that inhibited growth compared to the no-treatment control.

[2] = system: preformed S. aureus NCTC 8325 biofilms; test: Preformed biofilm assay (crystal violet); assay type: cell-based, Staphylococcus aureus
Method: The effect of auranofin, alone and in combination with antibiotics, on preformed S. aureus biofilms was assessed. Briefly S. aureus NCTC 8325 was plated in 96-well plates as described in Example 2 and incubated 37° C. for 24 hours. Biofilms were then washed 3 times with TSB and 150 μL of fresh TSB and 3 μL of auranofin at the appropriate dilution in DMSO was added to the wells in duplicate. Plates were again sealed with AeraSeal™ and reincubated 37° C. for 24 hours. Biofilm was then detected as described in above.

[3] = system: S. aureus NCTC 8325 and clinical isolates; test: Disc assay for resistance development; assay type: cell-based, Staphylococcus aureus; conditions: 4 μg disc, TSB agar, overnight
Method: Bacteria were plated on TSB agar. 3M discs (impregnated with 4 μg auranofin, 4 μg rifampicin or DMSO alone) were placed on top of the agar. The plates were incubated overnight at 37° C. and any zone of bacterial inhibition was measured. Any bacterial colonies growing within this zone of inhibition were picked and subsequently analysed for potential resistance against the appropriate compound/antibiotic using a growth or biofilm formation assay as described above. […] These S. aureus Rif mutants were tested in a growth assay and their rifampicin resistance confirmed.

[4] = system: S. aureus (strain SH1000-GFP) in THP-1 cells; test: S. aureus infection of THP-1 cells (fluorescence microscopy); assay type: cell-based, Staphylococcus aureus; conditions: 1 μg/ml in 0.5% DMSO, moi 3, over 24 h
Method: THP-1, a human monocytic cell line was infected with S. aureus (strain SH1000-GFP) at a multiplicity of infection of 3 for 1.5. hours. Cells were washed 3 times and auranofin (1 μg/ml in 0.5% DMSO) or 0.5% DMSO was added. Cells were observed under a fluorescent microscope at various time points post infection (FIG. 3).

[5] = system: multi-drug resistant clinical isolates of K. pneumoniae; assay type: cell-based, Klebsiella pneumoniae; conditions: 100 μg disc; C204742, C68761, C188681, C71173
Method: The ability of auranofin to inhibit the growth of four multi-drug resistant clinical isolates of K. pneumoniae was assessed. The clinical isolates were C204742 (resistant to ampicillin and gentamicin), C68761 (resistant to ampicillin, trimethoprim and sulfamethoxazole), C188681 (resistant to ampicillin, trimethoprim, sulfamethoxazole, ceftazidime, tobramycin and ciprofloxacin) and C71173 (resistant to ampicillin, trimethoprim, sulfamethoxazole, ceftazidime, tobramycin, gentamicin and ciprofloxacin). These strains have been previously described in Chowdhury et al., (2011) Antimicrob Agents Chemother 55: 3140-3149.
Bacterial colonies were picked and diluted 1/1000 in Luria broth (LB). 100 μL of each dilution was then streaked out on LB plates. Discs impregnated with 100 μg auranofin or 100 μg gentimicin or auranofin and gentamicin (100 μg each) were placed on top of the agar. The plates were incubated overnight at 37° C. and any zone of bacterial inhibition was noted.

[6] = system: rifampicin-resistant S. aureus mutants; assay type: cell-based, Staphylococcus aureus; conditions: discs with 4 μg (4 μg each), TSB agar, overnight, data not shown
biofilm formation = test: Inhibition of biofilm formation (general description); assay type: cell-based; conditions: organism not stated
existing biofilms = test: Action against existing biofilms (general description); assay type: cell-based; conditions: for concentration for action against existing biofilms (not observed even at): organism not stated
[7] = system: A. baumannii (D2, A94 and ATCC 17978); test: Growth assay in LB, absorbance 595 nm; assay type: cell-based, Acinetobacter baumannii
Method: In the first growth assay, three strains of A. baumannii (D2, A94 and ATCC 17978) were cultured in LB in the presence of 1.25, 2.5, 5, 10, 20 or 40 μg/mL auranofin or 1.56, 3.13, 6.25, 12.5, 25, 50, 100 or 200 μg/mL gentamicin for 22-24 hours. Bacterial strains were also grown in the absence of antibiotic, and these were used as controls. The bacterial growth was determined by the measurement of absorbance at 595 nm using a Synergy HT Bio-Tek plate reader. The growth of A. baumannii was then assessed as a percentage of the positive control (bacteria alone grown in the presence of 2% DMSO).
A second growth assay was then performed to determine the effect of a combination of auranofin and gentamicin on bacterial growth. Briefly, A. baumannii was cultured in LB medium for 22-24 hours in the presence of […], 2.5, 5, 10, 20 or 40 μg/ml auranofin and 0, 30, 100, 300 or 1000 μg/ml gentamicin before growth was determined by the measurement of absorbance at 595 nm using a Synergy HT Bio-Tek plate reader. The growth of A. baumannii was then assessed as a percentage of the positive control (bacteria alone grown in the presence of 2% DMSO).

[8] = system: A. baumannii D2 biofilm formation; test: Biofilm prevention assay (crystal violet); assay type: cell-based, Acinetobacter baumannii; conditions: A. baumannii D2, 24 hours
Method: The effect of auranofin on the formation of A. baumannii D2 biofilm formation was assessed using the biofilm prevention assay described above in Example 2 with slight modifications. Briefly, A. baumannii D2 were grown overnight in LB media and diluted 1/100 before 150 μL was added to the wells of a flat bottomed 96-well plate. Three microliters of auranofin or gentamicin at the appropriate dilution in DMSO was added to the wells in duplicate. Controls included a positive control with bacteria alone with media and 2% DMSO and a negative (no bacteria) control with media containing 2% DMSO. Plates were sealed with AeraSeal™ and incubated at 37° C. for 24 hours. The plates were then washed three times with PBS, dried at 60° C. for 1 hour and stained with crystal violet for 1 hour. The plates were again washed three times with water, dried and scanned prior to the addition of 33% acetic acid to re-solubilize the crystal violet stain bound to the adherent cells. Absorbance was then measured at 595 nm and expressed as a percentage of the bacteria only control.

## CO[C@H]1/C=C/O[C@@]2(C)Oc3c(C)c(O)c4c(O)c(c(/C=N/N5CCN(C)CC5)c(O)c4c3C2=O)NC(=O)/C(C)=C\C=C\[C@H](C)[C@H](O)[C@@H](C)[C@@H](O)[C@@H](C)[C@H](OC(C)=O)[C@@H]1C [rifampicin]
S. aureus NCTC 8325; 0.2 μg/mL and 1 μg/mL rifampicin
  time after which bacterial growth starts to increase (development of resistance): about 10 hours

## CC[P](CC)(CC)=[Au][S][C@@H]1O[C@H](COC(C)=O)[C@@H](OC(C)=O)[C@H](OC(C)=O)[C@H]1OC(C)=O [auranofin, 2,3,4,6-tetra-o-acetyl-1-thio-J-D-glucopyranosato-S-(triethylphosphine) gold]
S. aureus
  resistance of potential mutants picked from agar plates, growth assay: none of the potentially auranofin-resistant bacteria picked from agar plates were actually resistant
[1]; depletion of gor
  effect of depletion on sensitivity to auranofin: little effect
[1]; mutant lacking gsha
  sensitivity to auranofin compared to the wild-type strain: more sensitive
[1]; mutant lacking gshb
  sensitivity to auranofin compared to the wild-type strain: more sensitive
[2]; 5 μg/mL auranofin alone or 1.5 μg/mL rifampicin alone
  effect on the biofilm, compound alone: only a partial effect
[2]; 20 μg/mL and 40 μg/mL auranofin
  effect on existing S. aureus biofilm: essentially eliminating the biofilm
[2]; 24 hours treatment, FIG. 5
  effect on existing S. aureus biofilms (crystal violet staining): dose-dependent inhibitory effect
[3]
  bacterial colonies growing within the zone of inhibition (resistance): No growth was observed
[3]; NCTC 8325 and clinical isolates incl. MRSA
  zone of inhibition: produced zones of inhibition
[4]
  intracellular and extracellular S. aureus growth in infected THP-1 cells: inhibited intracellular and extracellular S. aureus growth
S. aureus NCTC 8325; 0.5, 1 or 5 μg/mL auranofin, or 0.5 μg/mL auranofin with 0.2 μg/mL rifampicin
  development of resistant bacteria over time: no resistant bacteria were observed
S. aureus NCTC 8325; auranofin 0.5, 1 or 5 μg/mL, TSB
  growth inhibitory effect in time kill assay: concentration- and time-dependent
[5]
  growth inhibition, disc assay: shows inhibitory activity against all four multi-drug resistant clinical isolates tested
[6]
  zone of inhibition on rifampicin-resistant mutants: Zones of inhibition formed

## CC(=O)NC[C@H]1CN(c2ccc(N3CCOCC3)c(F)c2)C(=O)O1 [linezolid]
Biofilm formation
  concentration at which inhibition of biofilm formation is observed: ~6 µg/mL
Existing biofilms; at least
  shift between inhibition of biofilm formation and action against existing biofilms: ≥ 15 fold
Existing biofilms
  concentration for action against existing biofilms (not observed even at): > 100 µg/mL

## CC[C@H]1OC(=O)[C@H](C)[C@@H](O[C@H]2C[C@@](C)(OC)[C@@H](O)[C@H](C)O2)[C@H](C)[C@@H](O[C@@H]2O[C@H](C)C[C@H](N(C)C)[C@H]2O)[C@](C)(O)C[C@@H](C)C(=O)[C@H](C)[C@@H](O)[C@]1(C)O [erythromycin]
Biofilm formation
  concentration at which inhibition of biofilm formation is observed: 0.1 to 0.3 µg/mL
Existing biofilms
  concentration for action against existing biofilms (not observed even at): > 3 µg/mL

## gentamicin
[2]; 0.9 or 3 μg/mL rifampicin, 25 or 75 μg/mL gentamicin
  effect on biofilm mass, antibiotic alone: no effect on biofilm mass
[7]; A. baumannii A94
  susceptibility in growth assay: partially resistant
[7]; A. baumannii ATCC 17978
  susceptibility in growth assay: susceptible
[7]; A. baumannii D2
  susceptibility in growth assay: completely resistant
[8]
  concentration that completely prevented biofilm formation: > 20 µg/mL
